The source of these data is a melting point compilation (Tetko et al.).

Structures are written as SMILES.

A word on the melting point: it is the temperature of the solid-liquid transition. For `N#CC1=C(N)Oc2ccccc2C1`, the melting point is 143 to 145 °C.
The molecule `Cn1cccc1C=CC(=O)O` registered a melting point of 153 to 155 °C.
`COc1coc(CCl)cc1=O` displayed a melting point of 116 to 118 °C.
Under `O=C(O)CC(=O)Nc1nccs1` stands 181 to 183 °C; under `CC(C)(C)C(=O)Nc1ccc(Cl)c(C(F)(F)F)c1`, 132 to 134 °C; under `CC(C)(C)C(=O)NC1CCCNC1` (centres undefined), 99 to 101 °C.
Consider `CC(CC(=O)O)c1ccc(F)cc1F` (centres undefined), for which the melting point was in the range of 66 to 68 °C.
Under `CC(=O)NCCc1ccc(S(=O)(=O)Cl)s1` stands 87 to 89 °C; under `Fc1ccc2nc(NCc3ccccc3)sc2c1`, 182 to 184 °C.
The molecule `O=C(O)c1cc(-c2ccc(Cl)cc2)on1` yielded a melting point of 185 to 187 °C.
Take `O=C(O)C1CC(c2ccc(Cl)cc2Cl)=NO1` (centres undefined): the melting point was 115 to 117 °C.
Under `COc1cc(C(C[N+](=O)[O-])c2c[nH]c3ccccc23)ccc1O` (centres undefined) stands 115 to 117 °C; under `Cc1[nH]c2ccccc2c1C(=O)CCl`, 227 to 229 °C; under `CNS(=O)(=O)c1cc(N)ccc1C`, 133 to 137 °C.
Under `Cc1cc(C)cc(N2CCC(C(=O)O)C2=O)c1` (centres undefined) stands 115 to 117 °C; under `O=C(O)C1CCN(S(=O)(=O)c2cccnc2)CC1`, 237 to 239 °C.
Under `COc1ccc(Cn2cnc(N)n2)cc1` stands 129 to 131 °C; under `Cc1cc(N)ccc1NC(=O)c1cccc(S(C)(=O)=O)c1`, 149 to 151 °C; under `O=[N+]([O-])c1cnc(Cl)c(Br)c1`, 54 to 58 °C.
With `Sc1nc(-c2cccs2)c(-c2cccs2)[nH]1`, the melting point fell in the range of 293 to 295 °C.
Under `O=c1[nH]c(CCl)nc2scc(-c3ccc(Cl)cc3)c12` stands 124 to 126 °C; under `Cc1ccc(Oc2ccc(N)cc2Cl)c(Br)c1`, 110 to 112 °C.
Under `CCNc1cc2c(nn1)CCNC2` stands 140 to 142 °C.
On to `O=Cc1ccc(-c2c(F)cccc2F)o1`, for which the melting point lay in the range of 51 to 53 °C.
Under `CC(=O)c1ccc(OCc2nccn2C)cc1` stands 106 to 108 °C; under `Cc1cc([N+](=O)[O-])c(Cl)cc1F`, 43 to 45 °C.
Under `CCOc1ccc(S(N)(=O)=O)cn1` stands 133 to 135 °C; under `Cc1ccc(S(=O)(=O)CC(=O)CBr)cc1`, 133 to 135 °C.
Under `COc1ccc(C(=O)N2CCN(C)CC2)cc1N` stands 114 to 116 °C; under `OCc1cnc(N2CCOCC2)s1`, 101 to 103 °C; under `CN(C)c1ccc(N2C(=O)C=CC2=O)cc1`, 152 to 154 °C.
In turn, `NC(=O)c1c(NC(=O)CCl)sc2c1CCC2` had a melting point of 181 to 183 °C.
Under `CC(=O)N1CCN(C(=O)CCC(=O)O)CC1` stands 110 to 116 °C.
Under `O=C(O)CCSc1ccc(Cl)cc1` stands 85 to 87 °C.
Under `Cc1ccc(-n2c(S)nc3ccccc32)c(C)c1` stands 192 to 194 °C; under `Cc1ccc(Cl)c2c1NC(=O)C2=O`, 275 to 277 °C; under `COc1ccc(S(=O)(=O)Cl)c(OC)c1C(=O)O`, 129 to 131 °C.
For `CSc1ccc(CN2CCNCC2)cc1`, the melting point was 53 to 55 °C.
Under `COc1ccccc1C(N)=S` stands 113 to 115 °C; under `CC(C)(C)OC(=O)NC(CN)c1ccccc1` (centres undefined), 65 to 67 °C.
Under `Nc1ccc2c(c1)C(=O)N(c1ccc(F)cc1)C2=O` stands 211 to 213 °C; under `O=C(O)c1ccccc1S(=O)(=O)C(F)(F)F`, 107 to 109 °C.
Under `N#Cc1cc(N)ccc1OCC(F)(F)F` stands 78 to 80 °C.
In turn, `O=C(O)Cn1cccn1` gave a melting point of 139 to 141 °C.
`Nc1ccc(CCCC(=O)O)cc1` registered a melting point of 121 to 124 °C.
Under `O=[N+]([O-])c1cc(S(=O)(=O)N2CCOCC2)ccc1Cl` stands 153 to 155 °C.
As for `CC(C)(C)OC(=O)NCc1nnc(-c2cccnc2)[nH]1`, the melting point lay in the range of 196 to 198 °C.
Under `O=C(O)c1ccc(-c2cc(F)c(F)c(F)c2)cc1` stands 264 to 266 °C.
Under `CC(=O)Nc1ccc(NS(C)(=O)=O)c(C(=O)O)c1` stands 265 to 267 °C; under `NCc1ccc(N2CCC(O)CC2)c(F)c1`, 104 to 106 °C.
Consider `CC(=O)c1ccc2[nH]c(=O)[nH]c2c1`, for which the melting point is 264 to 266 °C.
Under `O=C(CC1SC(N2CCCCC2)=NC1=O)Nc1cccc(C(=O)O)c1` (centres undefined) stands 188 to 190 °C.
Under `CCS(=O)(=O)c1ccc(Cl)cc1N` stands 85 to 87 °C; under `CC(C)Oc1ccc(C(N)=S)cc1`, 152 to 154 °C; under `CNc1ncccn1`, 60 to 62 °C.
Under `CC(c1cc(Cl)ccc1Cl)n1nccc1N` (centres undefined) stands 94 to 96 °C; under `Cc1nn(-c2ccc(Br)cc2)cc1C(=O)O`, 229 to 231 °C; under `CC(=O)N1CCC(C(=O)O)(c2ccccc2)CC1`, 207 to 209 °C.
Molecule `Cn1c(=O)cc(N)n(Cc2ccccc2)c1=O` had a melting point of 95 to 99 °C.
On to `CC(N)C(=O)Nc1ccc(Cl)cc1` (centres undefined), for which the melting point was in the range of 84 to 86 °C.
Under `CCOC(=O)c1c(N)sc2c1CCNC2` stands 121 to 123 °C; under `Cc1cc2c(cc1Br)NC(=O)C(C)O2` (centres undefined), 208 to 210 °C.
Under `C1CCC(c2nnc3n2CCCC3)NC1` (centres undefined) stands 107 to 109 °C.
Under `NC(=S)Cn1nc2ccccn2c1=O` stands 204 to 206 °C; under `Cc1c(C#N)c(NC(=O)CCl)n(Cc2ccc(F)cc2)c1C`, 279 to 281 °C.
`CC1(CCc2ccccc2)NC(=O)N(N)C1=O` (centres undefined) displayed a melting point below 17 °C.
Under `O=Cc1cccc(NC(=O)C(F)(F)F)c1` stands 102 to 104 °C.
Under `Cc1ccc(-n2cc(S(=O)(=O)Cl)cn2)cc1` stands 92 to 94 °C.
Under `c1ccc(CN2CCN(Cc3ccccc3)CC2)cc1` stands 89 to 91 °C.
In turn, `O=Cc1cccnc1Cl` gave a melting point of 50 to 54 °C.
Under `Cc1nnc(CCl)o1` stands 32 to 40 °C; under `CCc1cc(=O)c2ccccc2[nH]1`, 174 to 176 °C.
Take `CCOC(=O)c1cnc2c(OC)ccc(OC)c2c1Cl`: the melting point was in the range of 87 to 89 °C.
For `O=C(O)CCC(=O)N1CCN(c2ncccn2)CC1`, the melting point was 166 to 168 °C.
Under `Cc1ccc(-c2csc(NC(=O)CCl)n2)cc1C` stands 179 to 181 °C; under `CC1CCN(S(=O)(=O)c2ccc(N)cc2)CC1`, 108 to 110 °C.
Turning to `O=C(c1ccccc1)c1ccc(Br)cc1F`, the melting point fell in the range of 76 to 78 °C.
Under `Nc1nc2ccc(SC(F)F)cc2s1` stands 105 to 107 °C.
Under `O=C(c1ccc(Cl)cc1)c1ccsc1` stands 92 to 94 °C; under `NCc1ccc(NC(=O)c2cccnc2)cc1`, 137 to 139 °C.
Under `ON=Cc1cccc(OCc2ccncc2)c1` stands 177 to 179 °C.
In turn, `O=C(O)CN(CC(=O)O)Cc1ccccc1` gave a melting point of 200 to 202 °C.
For `CS(=O)(=O)Cc1nc2ccccc2n1CC(=O)O`, the melting point was 249 to 251 °C.
Under `CCCc1ccccc1NC(N)=S` stands 116 to 118 °C; under `CC(C)N1C2CCC1CC(C(=O)O)C2` (centres undefined), 223 to 225 °C; under `COc1cc(C=O)cc(OC)c1OCc1ccccc1`, 62 to 64 °C.
In turn, `Cc1c(C(=O)O)oc2ccc(Cl)cc12` showed a melting point of 255 to 257 °C.
Under `COc1cc(NC(=O)Cc2cccs2)c(C(=O)O)cc1OC` stands 195 to 197 °C; under `CCN(C(=O)CCl)c1nc2ccccc2s1`, 233 to 235 °C.
Under `c1cncc(NCc2ccco2)c1` stands 45 to 49 °C; under `Sc1nnc(N2CCCCC2)s1`, 165 to 167 °C.
`CC(Cl)C(=O)Nc1ccccc1[N+](=O)[O-]` (centres undefined) showed a melting point of 71 to 73 °C.
Under `COc1cccc2cc(C=O)oc12` stands 45 to 47 °C; under `COC(=O)c1cnc(Cl)c(S(=O)(=O)N2CCOCC2)c1`, 132 to 134 °C; under `COc1cc(F)c(N)cc1F`, 80 to 82 °C.
Under `Cc1ccc(S(=O)(=O)Cc2ccc(C(=O)O)cc2)cc1` stands 281 to 283 °C; under `CN(C)c1cc(C#N)ccn1`, 69 to 71 °C.
Under `O=[N+]([O-])c1ccc2c(c1)NCCS2` stands 142 to 144 °C; under `Cc1ccc(-c2csc(=O)n2CC(=O)O)cc1`, 128 to 130 °C; under `Nc1cc(Cl)c(N)cc1Cl`, 164 to 166 °C.
The molecule `Cc1ccc(N)cc1N1C(=O)CCC1=O` gave a melting point of 199 to 201 °C.
Under `CCn1nnc2cc(C(=O)O)ccc21` stands 228 to 230 °C.
Under `O=C(O)Cc1cccc(OCC(F)(F)F)c1` stands 99 to 101 °C; under `O=C(c1cccc(Cl)c1)N1CCNCC1`, 96 to 98 °C.
Under `CN(C(=O)c1cccc(C(=O)O)c1)c1ccccc1` stands 170 to 172 °C; under `COC(=O)c1c[nH]c(=O)c(N)c1`, 209 to 211 °C; under `O=C(O)CCCc1csc2ccccc12`, 109 to 111 °C.
Molecule `O=C(CCl)NC(=O)Nc1ccc2c(c1)OCCO2` yielded a melting point of 128 to 130 °C.
Under `Cc1ccccc1-n1nnnc1S` stands 65 to 67 °C.
With `O=C=Nc1ccc2c(c1)OCO2`, the melting point fell in the range of 48 to 51 °C.
With `CCOc1ccc(S(N)(=O)=O)cc1OCC`, the melting point is 152 to 154 °C.
Under `O=C(O)C=Cc1cc(Cl)ccc1OCc1ccccc1Cl` stands 195 to 197 °C; under `COC(=O)C(C#N)=NO`, 122 to 124 °C; under `O=C(c1cc(Cl)nc2ccccc12)N1CCOCC1`, 175 to 177 °C.
In turn, `CCN(CC)S(=O)(=O)c1cc(C(=O)O)ccc1Cl` gave a melting point of 118 to 120 °C.
As to `COc1ccc(C(C)C(=O)O)cc1` (centres undefined), the melting point is 52 to 54 °C.
`O=Cc1nccc2ccccc12` showed a melting point of 51 to 53 °C.
As to `COc1ccc(NS(=O)(=O)c2cc(N)ccc2N2CCCC2)cc1`, the melting point fell in the range of 178 to 182 °C.
Under `COc1ccc(Cn2c(N)nc3ccccc32)cn1` stands 173 to 175 °C.
